From patent US5428058A, “Phospholipase A2 inhibitors” (American Home Products Corporation, priority 1994, dated 1995)
Where “and” joins values, the source holds several entries; their conditions need not be identical. Identical values can stand only once.

Key:
cyclooxygenase = cyclooxygenase inhibition (PGE2 production) in resident murine peritoneal macrophages; assay type: cell-based, mouse (Swiss Webster); conditions: dose 0.5 μM; mouse macrophages, zymosan induced
Experimental: (§1) The ability of the compounds of the invention to act as inhibitors of the enzymes 5-lipoxygenase and cyclooxygenase was evaluated in the resident murine peritoneal macrophage standard pharmacological test procedure. This test procedure was carried out as follows.
(§2) Resident peritoneal macrophages were collected from female Swiss Webster mice (49 days old, 20-25 gms, Buckshire) by lavaging with 7-8 ml Hanks Balanced Salt Solution (HBSS) without Ca^++ and Mg^++ (GIBCO). The lavage fluid from several mice was pooled and centrifuged at 4° C. for 10 minutes at 400 xg. The cell pellet was resuspended in Medium 199 (GIBCO) with HEPES buffer containing 100 μg/ml gentamicin. Two ml of the cell suspension (4×10^6 cells) were then plated on 35 mm culture dishes (Nunc).
A macrophage monolayer was established after a 1-1.5 hour incubation of the cells at 37° C. in an atmosphere of […] and 5% CO2. […]
Residual serum and cellular debris were removed from the monolayers by washing 3× with 2 ml HBSS containing Ca^++ and Mg^++. […] In all cases, results are expressed as ng metabolite/4×10^6 cells.
Calculations: The raw data were converted to ng metabolite/4-10^6 cells using a standard curve. Results were then expressed as percent inhibition of zymosan induced, leukotriene or prostaglandin synthesis (control) using the following equation: [formula] […]

[1] = test system: tetradecanoylphorbol acetate (TPA) induced ear edema; assay: tetradecanoylphorbol acetate (TPA) induced ear edema in mice; assay type: in vivo, mouse (Webster); set-up: activity in TPA ear edema test: dose or concentration left out as unconfirmed; conditions: for Percent Inhibition TPA Ear Edema: 30 min after TPA, measured 4 hrs after TPA
Experimental: Representative compounds of this invention were evaluated in an in vivo standard pharmacological test procedure that measured the effect of the representative compounds on dermal inflammation, as measured by the prevention of tetradecanoylphorbol acetate (TPA) induced car edema in Webster mice. This test procedure was carried out as follows.
Mice were placed into plastic boxes in groups of six. Eight groups of mice received TPA topically on the right ear. TPA was dissolved in acetone at a concentration of 100 ug/ml. TPA was applied to the right ear by the means of an automatic pipette. Volumes of 10 ul were applied to the inner and outer surfaces of the ear. Each mouse received 2 ug/ear TPA. The left ear (control) received acetone delivered in the same manner. The compounds to be evaluated were given orally 30 min after treatment with TPA.
Measurements were taken with Oditest calipers, 0-10 mm with 0.01 graduations. The right and left cars were measured 4 hrs after TPA-induced inflammation.
The difference between right and left car thickness was calculated and the significance was determined by a one way analysis of variance with Dunnet's comparisons to control (P=0.05). Drug effects are expressed as a percent change from control values according to the following formula. [formula]

5-lipoxygenase = molecular target: T1, 5-lipoxygenase (Mus musculus, UniProt P48999); assay: 5-lipoxygenase inhibition (LTC4 production) in resident murine peritoneal macrophages; assay type: cell-based, mouse (Swiss Webster)
T1 construct: Resident peritoneal macrophages were collected from female Swiss Webster mice; endogenous in cells; host or cells: resident peritoneal macrophages of female Swiss Webster mice
T1 sequence (P48999 1-674): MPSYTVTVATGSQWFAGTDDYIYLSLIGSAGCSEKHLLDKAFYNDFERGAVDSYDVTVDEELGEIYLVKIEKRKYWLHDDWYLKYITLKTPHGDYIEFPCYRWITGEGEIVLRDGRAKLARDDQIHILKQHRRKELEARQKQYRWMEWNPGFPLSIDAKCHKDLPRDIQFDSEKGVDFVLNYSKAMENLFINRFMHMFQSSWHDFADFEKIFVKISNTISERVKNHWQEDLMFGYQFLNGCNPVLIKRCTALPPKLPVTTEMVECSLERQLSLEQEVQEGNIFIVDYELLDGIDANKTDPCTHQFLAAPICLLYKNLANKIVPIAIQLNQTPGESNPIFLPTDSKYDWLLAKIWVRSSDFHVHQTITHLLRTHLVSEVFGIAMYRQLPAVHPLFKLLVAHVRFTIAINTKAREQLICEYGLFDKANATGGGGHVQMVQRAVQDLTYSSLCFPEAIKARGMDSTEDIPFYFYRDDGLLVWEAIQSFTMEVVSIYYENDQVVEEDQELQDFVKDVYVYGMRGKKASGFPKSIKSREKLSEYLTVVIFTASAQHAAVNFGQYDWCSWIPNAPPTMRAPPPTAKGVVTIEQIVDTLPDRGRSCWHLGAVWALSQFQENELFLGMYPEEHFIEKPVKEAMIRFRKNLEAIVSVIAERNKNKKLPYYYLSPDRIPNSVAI
Experimental: as §1, §2
A macrophage monolayer was established after a 1-1.5 hour incubation of the cells at 37° C. in an atmosphere of […] and 5% CO2. The monolayers were washed 2× with 2 ml HBDSS, containing Ca^++ and Mg^++ after which 2 ml Medium 199 supplemented with 10% freshly thawed heat-inactivated fetal bovine serum and 100 μg/ml gentamicin was added for an overnight incubation.
Residual serum and cellular debris were removed from the monolayers by washing 3× with 2 ml HBSS containing Ca^++ and Mg^++. Macrophages were preincubated for 5 minutes with 1 ml serum-free M199 containing 10 μl dimethyl sulfoxide (DMSO) vehicle or test compound prior to cell activation with zymosan ([…]) or arachidonic acid (AA) (2 μM). After 2 hours, the supernatants were removed and either assayed for LTC4 and PGE2 by radioimmunoassay (RIA) directly or stored at -20° C. In all cases, results are expressed as ng metabolite/4×10^6 cells.
Calculations: The raw data were converted to ng metabolite/4-10^6 cells using a standard curve. Results were then expressed as percent inhibition of zymosan induced, leukotriene or prostaglandin synthesis (control) using the following equation: [formula] REFERENCE COMPOUNDS: The compounds used are listed below.

[2] = mouse macrophages, zymosan induced
[3] = dose 0.1 μM, mouse macrophages, zymosan induced

SMILES	PGE2 % Inhibition (cyclooxygenase)	Percent Inhibition TPA Ear Edema ([1]; 80 mg/kg p.o.)	Percent Inhibition TPA Ear Edema ([1]; 160 mg/kg p.o.)	inhibition at 0.5 µM (5-lipoxygenase; [2])	other results
O=C(CC[C@@H]1CC[C@H]2CCCC[C@@H]2C1)C1=C(O)COC1=O (relative stereo) [Example 1, 3-[3-[(2α,4aα,8aβ)-Decahydro-naphthalene-2-yl]-propionyl]-4-hydroxy-2-(5H) -furanone]	54%	19%	49%	59%	–
O=C(CC[C@@H]1CC[C@H]2CCCC[C@@H]2C1)C1=C(O)CSC1=O (relative stereo) [Example 2, 3-[3-[(2α,4aα,8aβ)-Decahydro-naphthalene-2-yl]-propionyl]-4-hydroxy-2-(5H)thiophenone]	80% and 85%	21%	66%	92%	LTC4 % Inhibition (5-lipoxygenase; [3]): 37%; inhibition at 0.1 µM (5-lipoxygenase; [3]): 43%
NC1=NN(c2cccc(C(F)(F)F)c2)CC1 [BW 755c, reference compound]	–	–	–	–	ED50 ([1]; Mus musculus, 4 h, oral, TPA-induced ear edema, mice): 88 mg/kg
CCCCCC#CCC#CCC#CCC#CCCCC(=O)O [ETYA, reference compound]	–	–	–	–	IC50 (5-lipoxygenase): 440 nM
COc1ccc2c(c1)c(CC(=O)O)c(C)n2C(=O)c1ccc(Cl)cc1 [Indomethacin, reference compound]	–	–	–	–	activity in TPA ear edema test [1]: inactive
